According to USRE46943E1, “Radioprotector compounds and methods” (PETER MACCALLUM CANCER INSTITUTE, priority 2010, dated 2018):

What was measured:
[1] = test system: mouse jejunum crypt clonogens; test: Radioprotection of mouse jejunum by intravenous 2PH (surviving crypt clonogens); type: in vivo, C3H/HeJ mice
Experimental: C3H/HeJ mice were administered 2PH by intravenous (tail vein) injection (30 mM solution in acetate-buffered saline, pH5; 150 mg/kg) 2 hours prior to whole body irradiation (up to 19 Gy) with ^137Cs γ-rays (GammaCell 40 Irradiator, Nordion International Inc., Canada) at a dose rate of 0.73 Gy/min, in groups of 5. The mice were euthanised 3 days 14 hours post-irradiation and the jejunum excised. Five 1 cm jejunum sections were taken from each mouse and bundled with micropore tape before being fixed in neutral buffered formalin. Samples are then paraffin embedded, sectioned and stained with Hematoxylin-Eosin. The densely stained colonies (>10 cells) arising from proliferation of surviving crypt clonogens were counted and scored on the basis of colonies per circumference.
The data for each of the two experimental groups was fitted to the expression: N(D)=N0(1−e^−Se^−αD) Where: • N0 is the initial number of clonogens per circumference, • N(D) the number of surviving clonogens per circumference after a radiation dose of D Gy, • S is the number of clonogens per crypt, and • α is the reciprocal of radiation dose corresponding to a lethal event.

mice = test: Radioprotection of mouse jejunum, subcutaneous administration: local reaction at injection site; type: in vivo
Experimental: 2-Hydroxypropyl-β-cyclodextrin (HPCD, Sigma-Aldrich, typical MW 1540) vehicle solution was prepared by dissolving 3.6 g of HPCD in 9.3 mL of phosphate buffered saline (PBS) resulting in 30% v/w solution. […] The concentration of M2PB was measured following appropriate dilution in 45% MeOH 0.1% TFA using an extinction coefficient […] at 345 nm. The M2PB/HPCD stock was diluted to 8.75 mg/mL (22 mM) in HPCD vehicle to produce the final M2PB/HPCD formulation, which was injected subcutaneously into mice, between the shoulder blades (scruff of the neck) at a volume of 8×10^−3 ml/g body weight.
The subsequent irradiation and analysis was as described for Example 56.

[2] = subcutaneous solutions in polyethylene glycol (MW 400), similar experiments with the jejunum model

| SMILES | α (reciprocal of radiation dose corresponding to a lethal event), derived by curve-fitting ([1]; 150 mg/kg intravenous 2 hours prior to whole body irradiation, control 0.529+/−0.048) | dose modification factor ([1]; 150 mg/kg intravenous, from α control and α 2PH) | local reaction or toxicity at the site of subcutaneous injection (mice; [2]) | local reaction or toxicity at the site of subcutaneous injection (mice; M2PB/HPCD formulation (complex with 2-hydroxypropyl-β-cyclodextrin), 8.75 mg/mL subcutaneous) |
| --- | --- | --- | --- | --- |
| CN1CCN(c2ccc3nc(-c4ccc5nc(-c6ccccn6)[nH]c5c4)[nH]c3c2)CC1 [Example 2, 2-(5′-(5″-(4′″-Methylpiperazin-1′″-yl)benzimidazol-2″-yl)benzimidazol-2′-yl)pyridine] | 0.431+/−0.039 Gy−1 | 1.23+/−0.15 | had been observed |  |
| c1ccc(-c2nc3ccc(-c4nc5ccc(N6CCOCC6)cc5[nH]4)cc3[nH]2)nc1 [Example 19, 2-(5′-(5″-Morpholinobenzimidazol-2″-yl)benzimidazol-2′-yl)pyridine] |  |  | had been observed | no indication of local reaction or toxicity |
